In patent US8846687B2, “Pyrazine compounds as PI3 kinase inhibitors” (Novartis AG, priority 2008, dated 2014):

Biological target: recombinant GST-p110γ (human PI 3-Kγ) (Homo sapiens, UniProt P48736)
Test: PI 3-kinase gamma in vitro kinase assay (Scintillation Proximity Assay)
Procedure: To express the recombinant protein, Sf9 (Spodoptera frugiperda 9) insect cells are routinely maintained at densities between 3×10^5 and 3×10^6 cells/ml in serum containing TNMFH medium (Sigma). Sf9 cells, at a density of 2×10^6 are infected with human GST-PI 3-KγΔ34 baculovirus at a multiplicity of infection (m.o.i.) of 1 for 72 hours. The infected cells are harvested by centrifugation at 1400 g for 4 minutes at 4° C. and the cell pellets are frozen at −80° C. […] Sf9 cells (1×10^9) are resuspended in 100 ml cold (4° C.) lysis buffer (50 mM Tris-HCl pH 7.5, 1% Triton X-100, 150 mM NaCl, 1 mM NaF, 2 mM DTT and protease inhibitors. Cells are incubated on ice for 30 minutes then centrifuged at 15000 g for 20 minutes at 4° C. Purification of the supernatant sample is carried out at 4° C. by affinity chromatography using SEPHAROSE™ agarose gel beads coupled to glutathione (from Amersham Pharmacia Biotech). A cell lysate/GST resin ratio of 50:1 is used. The GST resin is firstly pre-rinsed to remove ethanol preservative and then equilibrated with lysis buffer. Cell lysate (supernatant) is added (usually as 50 ml lysate to 1 ml GST resin in 50 ml tubes) and gently rotated on a mixer at 4° C. for 2-3 hours. The unbound flow through sample is collected by centrifugation at 1000 g for 5 minutes at 4° C. using a DENLEY™ centrifuge. The 1 ml GST resin containing bound material is transferred to a 15 ml FALCON™ centrifuge tube for subsequent washing and elution steps. Firstly a series of 3 cycles of washings (mixing by gentle inversion) is performed with 15 ml ice cold wash Buffer A (50 mM Tris-HCl pH 7.5, 1% Triton X-100, 2 mM DTT) interspersed with centrifugation at 1000 g for 5 minutes at 4° C. A final single wash step is performed with 15 ml ice cold wash Buffer B (50 mM Tris-HCl pH 7.5, 2 mM DTT) and then centrifuged at 1000 g for 5 minutes at 4° C. The washed GST resin is finally eluted with 4 cycles of 1 ml ice cold elution buffer (50 mM Tris-HCl pH 7.5, 10 mM reduced glutathione, 2 mM DTT, 150 mM NaCl, 1 mM NaF, 50% ethylene glycol and protease inhibitors) interspersed with centrifugation at 1000 g for 5 minutes at 4° C. Samples are aliquoted and stored at −20° C.
An in vitro kinase assay was established that measures the transfer of the terminal phosphate of adenosine triphosphate to phosphatidylinositol. The kinase reaction is performed in a white 96 well microtitre plate as a Scintillation Proximity Assay. Each well contains 10 μl test compound in 5% dimethylsulfoxide and 20 μl assay mix (40 mM Tris, 200 mM NaCl, 2 mM ethyleneglycol-aminoethyl-tetraacetic acid (EGTA), 15 μg/ml phosphatidylinositol, 12.5 μM adenosine triphosphate (ATP), 25 mM MgCl2, 0.1 μCi [^33P]ATP). The reaction is started by the addition of 20 μl of enzyme mix (40 mM Tris, 200 mM NaCl, 2 mM EGTA containing recombinant GST-p110γ).

Chain of recombinant GST-p110γ (human PI 3-Kγ) (P48736 38-1102): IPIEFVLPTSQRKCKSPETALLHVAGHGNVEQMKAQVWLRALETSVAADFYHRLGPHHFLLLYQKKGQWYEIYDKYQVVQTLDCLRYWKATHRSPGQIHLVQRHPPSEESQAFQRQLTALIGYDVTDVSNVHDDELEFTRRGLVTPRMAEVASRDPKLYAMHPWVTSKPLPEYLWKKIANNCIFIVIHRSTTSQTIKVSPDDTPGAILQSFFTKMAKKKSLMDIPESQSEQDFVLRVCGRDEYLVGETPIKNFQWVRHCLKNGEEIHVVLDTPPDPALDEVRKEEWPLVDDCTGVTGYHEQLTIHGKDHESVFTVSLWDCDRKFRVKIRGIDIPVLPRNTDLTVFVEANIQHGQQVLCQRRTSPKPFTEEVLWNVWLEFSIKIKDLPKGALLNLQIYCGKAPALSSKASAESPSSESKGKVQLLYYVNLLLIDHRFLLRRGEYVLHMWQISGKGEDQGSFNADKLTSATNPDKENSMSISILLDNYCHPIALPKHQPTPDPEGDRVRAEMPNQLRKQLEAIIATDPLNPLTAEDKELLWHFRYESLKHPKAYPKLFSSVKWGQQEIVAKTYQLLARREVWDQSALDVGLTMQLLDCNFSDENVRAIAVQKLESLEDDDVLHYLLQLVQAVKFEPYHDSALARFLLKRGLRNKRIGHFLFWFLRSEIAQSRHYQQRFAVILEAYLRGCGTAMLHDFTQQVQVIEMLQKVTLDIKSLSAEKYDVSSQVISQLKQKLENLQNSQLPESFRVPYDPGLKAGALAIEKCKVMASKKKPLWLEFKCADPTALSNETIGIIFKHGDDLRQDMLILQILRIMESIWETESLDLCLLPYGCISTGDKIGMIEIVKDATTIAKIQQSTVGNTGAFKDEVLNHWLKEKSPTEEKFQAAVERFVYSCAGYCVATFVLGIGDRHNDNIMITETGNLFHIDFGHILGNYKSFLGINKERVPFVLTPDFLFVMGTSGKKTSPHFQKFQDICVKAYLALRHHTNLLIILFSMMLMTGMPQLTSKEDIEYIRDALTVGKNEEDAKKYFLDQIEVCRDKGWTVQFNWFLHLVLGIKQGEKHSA

Q: For `Nc1ncc(-c2ccc3c(c2)OCO3)nc1C(=O)c1cccnc1` [Example 35, (3-Amino-6-benzo[1,3]dioxol-5-yl-pyrazin-2-yl)-pyridin-3-yl-methanone], which IC50 is on record?
A: 587 nM

Q: Which IC50 does the source give for `Nc1ncc(-c2cnc(N)c(C(=O)c3cccnc3)n2)cc1C(F)(F)F` [Example 1, [3-Amino-6-(6-amino-5-trifluoromethyl-pyridin-3-yl)-pyrazin-2-yl]-pyridiny-3-yl-methanone] here?
A: 33 nM

Q: For `Nc1ncc(-c2ccc(Cl)c(Cl)c2)nc1C(=O)c1ccc(CN2CCCCC2)cc1` [Example 86, [3-Amino-6-(3,4-dichloro-phenyl)-pyrazin-2-yl]-(4-piperidin-1-ylmethyl-phenyl)-methanone], which IC50 is on record?
A: 753 nM

Q: `Nc1ncc(-c2cncc(C(=O)N3CCOCC3)c2)nc1C(=O)c1cccnc1` [Example 28] was tested. Which IC50 did it give?
A: 373 nM

Q: `Nc1cccc(-c2cnc(N)c(C(=O)c3cccnc3)n2)c1` [Example 51, [3-Amino-6-(3-amino-phenyl)-pyrazin-2-yl]-pyridin-3-yl-methanone] was tested. Which IC50 did it give?
A: 393 nM

Q: With `Nc1ncc(-c2cc(S(=O)(=O)N3CCOCC3)c(F)cc2F)nc1C(=O)c1cccnc1` [Example 74, {3-Amino-6-[2,4-difluoro-5-(morpholine-4-sulfonyl)-phenyl]-pyrazin-2-yl}-pyridin-3-yl-methanone] as the compound, how does the IC50 read?
A: 125 nM

Q: How did the IC50 turn out when `Nc1ncc(-c2cccc(C(=O)O)c2)nc1C(=O)c1cccnc1` [Example 49, 3-[5-Amino-6-(pyridine-3-carbonyl)-pyrazin-2-yl]-benzoic acid] was run?
A: 362 nM

Q: With `Nc1ncc(-c2cc(C(F)(F)F)cc(S(N)(=O)=O)c2)nc1C(=O)c1cccnc1` [Example 67, 3-[5-Amino-6-(pyridine-3-carbonyl)-pyrazin-2-yl]-5-trifluoromethyl-benzenesulfonamide] as the compound, how does the IC50 read?
A: 431 nM

Q: Which IC50 does the source give for `Nc1ncc(-c2ccc(Cl)c(S(=O)(=O)Nc3ccccc3)c2)nc1C(=O)c1cccnc1` [Example 13, 5-[5-Smino-6-(pyridine-3-carbonyl)-pyrazin-2-yl]-2-chloro-N-phenyl-benzenesulfonamide] here?
A: 12 nM
